Measured values reported in article PMC6967409 (Frontiers in Chemistry, 2020).
Several values for one entry are separate records, joined by “and”; a condition that tells them apart may be missing. Equal entries are not always repeated. Where two headings read alike, the source gives them in different places.

How the values were obtained:
[1] = Cytotoxicity, Cytoselect LDH cytotoxicity assay kit; type: cell-based; conditions: human, HepG2 cells
Method: (§1) Cytotoxicity (EC50) was determined against Chinese hamster ovarian (CHO) using a 3-(4,5-dimethylthiazol-2-yl)-2,5-diphenyltetrazolium bromide (MTT) assay and hepatocellular carcinoma cells (HepG2) using the Cytoselect LDH cytotoxicity assay kit (Cell Biolabs).

[2] = tested on: P. falciparum NF54 early stage gametocytes (>90% stage I–III); experiment: Gametocytocidal luciferase reporter assay, early stage, 48 h; type: cell-based; conditions: Plasmodium falciparum, NF54, 48 h, read-out: Early Stage (EG, Luc 48 h) IC50
Method: (§2) P. falciparum parasites (NF54, K1, and W2) were cultured in vitro in human erythrocytes (A^+ or O^+) under 90% N2, 5% CO2, and 5% O2 atmospheric conditions with supplemented RPMI 1640 media (Sigma Aldrich) containing Albumax II, as previously described (Verlinden et al., [2011]). This study was carried out according the guidelines set out by the Faculty of Health Sciences Ethical Committee, Ethical Clearance no. EC-120821/077. The protocol was approved by the Faculty of Health sciences ethical committee at the University of Pretoria. All subjects gave written informed consent in accordance with the Declaration of Helsinki. Parasite proliferation was monitored microscopically using Giemsa stained smears. Synchronized ring stage parasites (>95%) were obtained using a 5% D-sorbitol (Sigma Aldrich) treatment. […] Gametocyte cultures were kept stationary under 90% N2, 5% CO2, and 5% O2 atmospheric conditions at 37°C and treated with 50 mM N-acetyl-glucosamine (NAG) to eliminate residual invasion of asexual parasites.
(§3) Gametocytocidal activity was determined using the luciferase reporter line (Reader et al., [2015]) to derive dose responses with two-fold serial drug dilutions for 48 h against early stage gametocytes (day 5 post-induction population, >90% stage I–III) and 10-fold serial drug dilutions for 72 h against late stage gametocytes (day 10 post-induction population, >90% late stage IV–V) (2% gametocytemia, 2% hematocrit), at 37°C under 90% N2, 5% CO2, and 5% O2 atmospheric conditions.

P. falciparum NF54 [3] = experiment: Metabolic (parasite LDH) assay, asexual ring stage parasites, 48 h; type: cell-based; conditions: Plasmodium falciparum, pLDH, CQ-sensitive NF54
Method: as §2
(§4) Working solutions of the derivatives were prepared from a 10 mM stock solution in 100% DMSO in supplemented RPMI 1640 media containing Albumax II with a final DMSO concentration of <0.1%, previously determined as being non-toxic to intraerythrocytic asexual parasites and gametocytes. Dose responses were assayed using a two-fold serial drug dilution on in vitro >95% ring stage intraerythrocytic P. falciparum parasites at 37°C under 90% N2, 5% CO2, and 5% O2 atmospheric conditions, detecting both parasite lactate dehydrogenase (pLDH) activity as a metabolic marker following a 48 h drug exposure (1.5–2% parasitemia and 2% hematocrit; Makler et al., [1993]) and SYBR Green I fluorescence as proliferative marker following a 96 h drug exposure (1% parasitemia and 1% hematocrit). […] Data analysis was performed using GraphPad Prism 7.

P. falciparum W2 [4] = experiment: T0 [3H]-hypoxanthine drug susceptibility assay; type: cell-based; conditions: Plasmodium falciparum; for IC50: W2, read-out: W2 IC50; for IC90: W2, read-out: W2 IC90
[5] = tested on: P. falciparum ARC08-22 (4G); experiment: T0 [3H]-hypoxanthine drug susceptibility assay, artemisinin-resistant clone (C580Y); type: cell-based, Plasmodium falciparum; conditions: preliminary, W2 as comparative sensitive strain
P. falciparum Dd2 [6] = experiment: Metabolic (parasite LDH) assay, asexual ring stage parasites, 48 h; type: cell-based; conditions: Plasmodium falciparum, pLDH, Dd2 CQ, pyrimethamine resistant
Method: as §4

[7] = tested on: P. berghei ANKA GFP-Luc-SMcon sporozoites; experiment: P. berghei-luciferase liver stage bioluminescence assay (causal prophylactic mode) in HepG2-CD81 cells; type: cell-based, Plasmodium berghei
Method: (§5) Briefly, HepG2-CD81 cells were seeded into 1,536 well plates containing 50 nL of test and control compounds diluted into DMSO. […] Next, 2 μL of luciferin reagent (Promega BrightGlo) was added to each well and luciferase activity was detected using a Perkin Elmer Envision plate reader. […] In parallel, plates were processed without sporozoites for HepG2 toxicity measurements.
(§6) In continuation of the transmission blocking theme, it is important to establish activities against liver stage parasites. […] This assay uses ultra-high-throughput screening methods optimized for a 1536-well format and a HepG2 human hepatoma cell line. […] To establish selectivity of the compounds for the parasite in the liver stage of infection, cytotoxicity was determined by measuring bioluminescence from the reaction between free ATP of compound-treated, uninfected hepatocytes and a luciferase reporter system.

Cytotoxicity, MTT assay = type: cell-based; conditions: Chinese hamster, CHO cells
Method: as §1

[8] = tested on: P. falciparum NF54 late stage gametocytes (>90% stage IV and V); experiment: Gametocytocidal luciferase reporter assay, late stage, 72 h; type: cell-based, Plasmodium falciparum; conditions: Plasmodium falciparum, NF54, 72 h, read-out: Late Stage (LG, Luc 72 h) IC50, >90% stage IV and V gametocytes, ±SEM
Method: as §2, §3

P. falciparum K1 [9] = experiment: Proliferative (SYBR Green I) assay, asexual parasites, 96 h; type: cell-based; conditions: Plasmodium falciparum, ±SEM
Method: as §2, §4

P. falciparum W2 [10] = experiment: as above; type: cell-based; conditions: Plasmodium falciparum, ±SEM
Method: as §2, §4

P. falciparum NF54 [11] = experiment: as above; type: cell-based; conditions: Plasmodium falciparum, ±SEM
Method: as §2, §4

[12] = HepG2 cytotoxicity bioluminescence assay (CellTiterGlo, ATP); type: cell-based, human; conditions: human, uninfected HepG2-CD81 cells
Method: as §5, §6

HepG2 cells = experiment: as above; type: cell-based, human; conditions: two biological replicates listed in one cell; listed as 27 (WHN-15)
Method: as §5, §6

P. falciparum NF54 [13] = tested on: P. falciparum NF54; parameters: method as in Coertzen et al. (2018); conditions: SYBR Green I; ref Coertzen et al. (2018); read-out: Proliferative IC50 NF54; cited from earlier work
P. falciparum Dd2 [14] = tested on: P. falciparum Dd2; parameters: method as in Coertzen et al. (2018); conditions: pLDH, 48 h; ref Coertzen et al. (2018); read-out: Metabolic IC50 Dd2; cited from earlier work
[15] = tested on: P. falciparum NF54 early stage gametocytes (>90% stage I–III); parameters: method as in Coertzen et al. (2018); conditions: read-out: Early Stage (EG, Luc 48 h) IC50; >90% stage I–III gametocytes; ref Coertzen et al. (2018); cited from earlier work
P. falciparum W2 [16] = tested on: P. falciparum W2; parameters: method as in Coertzen et al. (2018); conditions: SYBR Green I; ref Coertzen et al. (2018); read-out: Proliferative IC50 W2; cited from earlier work
[17] = tested on: P. falciparum NF54 late stage gametocytes (>90% stage IV and V); parameters: method as in Coertzen et al. (2018); conditions: read-out: Late Stage (LG, Luc 72 h) IC50; >90% stage IV and V gametocytes; ref Coertzen et al. (2018); cited from earlier work
P. falciparum K1 [18] = tested on: P. falciparum K1; parameters: method as in Coertzen et al. (2018); conditions: SYBR Green I; ref Coertzen et al. (2018); read-out: Proliferative IC50 K1; cited from earlier work
P. falciparum NF54 [19] = tested on: P. falciparum NF54; parameters: method as in Coertzen et al. (2018); conditions: pLDH, 48 h; ref Coertzen et al. (2018); read-out: Metabolic IC50 NF54; cited from earlier work
[20] = tested on: Chinese hamster ovarian (CHO) cells; conditions: cited from earlier work

| Structure (SMILES) | IC50 (P. falciparum W2 [4]) [nM] | IC90 (P. falciparum W2 [4]) [nM] | IC50 (P. falciparum NF54 [13]) [nM] | IC50 (P. falciparum Dd2 [14]) [nM] | IC50 [15] [nM] | IC50 (P. falciparum W2 [16]) [nM] | IC50 [17] [nM] | IC50 (P. falciparum K1 [18]) [nM] | IC50 (P. falciparum NF54 [19]) [nM] | other results |
| --- | --- | --- | --- | --- | --- | --- | --- | --- | --- | --- |
| C[C@H]1[C@H](N2CCN(C(=O)c3ccc(C(F)(F)F)cc3)CC2)O[C@@H]2O[C@@]3(C)CC[C@H]4[C@H](C)CC[C@@H]1[C@@]24OO3 [Compound 27] | 0.21 ± 0.04 | 0.41 ± 0.08 |  |  |  |  |  |  |  | EC50 [1]: 136 nM; IC50 [2]: 43.7 ± 5.1 nM; IC50 (P. falciparum NF54 [3]): 0.49 ± 0.04 nM; susceptibility of ARC08-22 (4G) clone (in words) [5]: no indication of reduced susceptibility; IC50 (P. falciparum Dd2 [6]): 13.2 ± 9.3 nM; Emax ([7]; Plasmodium berghei, 48 h, two biological replicates listed in one cell, read-out: P.berghei-Luciferase Liver Stage Bioluminescence Assay: Maximum measured (%)): 105%; IC50 ([7]; Plasmodium berghei, HepG2, 48 h, liver stage, HepG2 host cells, luciferase after 48 h, ±SD, read-out: P. berghei sporozoites IC50): 168 ± 55.2 nM; IC50 ([7]; Plasmodium berghei, two biological replicates listed in one cell, read-out: P.berghei-Luciferase Liver Stage Bioluminescence Assay: IC50): 129 nM; inhibition at 10 µM ([7]; Plasmodium berghei, Conc. 10 μM, read-out: P. berghei sporozoites Maximum inhibition %): 108 ± 4.24%; IC50 ([7]; two biological replicates listed in one cell, listed as 27 (WHN-15), read-out: P.berghei-Luciferase Liver Stage Bioluminescence Assay: IC50): 207 nM; EC50 (Cytotoxicity, MTT assay): 150000 nM; IC50 [8]: 2.8 ± 1.8 nM; IC50 (P. falciparum K1 [9]): 3.5 ± 2.4 nM; IC50 (P. falciparum W2 [10]): 3 ± 0.4 nM; IC50 (P. falciparum NF54 [11]): 3.4 ± 0.4 nM; IC50 at 72 h ([12]; two biological replicates listed in one cell): 8910 nM; EC50 at 72 h ([12]; uninfected HepG2, ATP bioluminescence): 7020 nM; HepG2 Cytotoxicity Bioluminescence Assay: Maximum measured (%) (HepG2 cells): 78.3% and 80.2%; IC50 (HepG2 cells): 5120 nM |
| CC1CCC2C(C)C(N3CCNCC3)OC3OC4(C)CCC1C32OO4 (stereo not drawn) [DHA-piperazine 9] |  |  | 3.1 ± 0.4 | 1.7 ± 0.2 | 54.9 ± 5.11 | 1.4 ± 0.7 | 25.7 ± 17.5 | 1.9 ± 0.5 | 3.2 ± 1.4 |  |
| CN(C)c1ccc2nc3ccc(=[N+](C)C)cc-3sc2c1 [MB, methylene blue] |  |  | 5 ± 0.8 | 12.6 ± 4 | 95 ± 11.3 | 5.13 ± 0.31 | 143 ± 16.7 | 6.45 ± 0.3 | 0.3 ± 0.8 | EC50 [20]: 52600 ± 4500 nM |
| CC1CCC2C(C)C(N3CCN(C(=O)Nc4ccccc4)CC3)OC3OC4(C)CCC1C32OO4 (stereo not drawn) [Phenylurea 10] | 0.12 ± 0.03 | 0.2 ± 0.03 | 4.7 ± 1.5 | 7.5 ± 0.4 | 83 ± 2 | 1.7 ± 0.5 |  | 2.9 ± 0.6 | 1.3 ± 0.8 | EC50 ([20]; read-out: Cytotoxicity EC50 CHO, MTT assay, ref Coertzen et al. (2018)): 2400 ± 1000 nM |
